# ChEMBL document CHEMBL5344464, “Forgotten Natural Products: Semisynthetic Development of Blasticidin S As an Antibiotic Lead” (ACS Med Chem Lett, 2024)
# Tests used:
# Enterococcus faecalis = assay: Antibacterial activity against Enterococcus faecalis ATCC 29212 assessed as minimum inhibitory concentration incubated for 24 hrs by broth microdilution method; type: functional
# Klebsiella pneumoniae = assay: Antibacterial activity against Klebsiella pneumoniae ATCC 29665 assessed as minimum inhibitory concentration incubated for 16 to 18 hrs by broth microdilution method; type: functional; conditions: time 16-18 hrs
MIC90 (Enterococcus faecalis),MIC90 (Klebsiella pneumoniae),SMILES
16 µg/mL,–,CNC(=O)[C@H]1O[C@@H](n2ccc(N)nc2=O)C=C[C@@H]1NC(=O)C[C@@H](N)CCN(C)C(=N)N
16 µg/mL,–,CN(C)C(=O)[C@H]1O[C@@H](n2ccc(N)nc2=O)C=C[C@@H]1NC(=O)C[C@@H](N)CCN(C)C(=N)N
–,128 µg/mL,CCCNC(=O)[C@H]1O[C@@H](n2ccc(N)nc2=O)C=C[C@@H]1NC(=O)C[C@@H](N)CCN(C)C(=N)N

SMILES,MIC90 (Enterococcus faecalis),MIC90 (Klebsiella pneumoniae)
CN(CC[C@H](N)CC(=O)N[C@H]1C=C[C@H](n2ccc(N)nc2=O)O[C@@H]1C(=O)O)C(=N)N [BLASTICIDIN_S],32 µg/mL,–
